The values that follow come from patent publication US5120750A, “Generation of 1,4-dihydropyridine derivatives” (priority 1990, dated 1992).

Molecules are shown by their SMILES. Entries after “also recorded” stand apart in the source; their conditions may differ. Like-named read-outs stand apart in the source and are kept apart here.

Data set [1] can be described thus: In-vivo (P.O.) anti-inflammatory activity. The conditions noted are these: for anti-inflammatory Activity: P.O.
Data set [2] can be described thus: In-vivo (P.O.) anti-ulcer stress activity. The conditions noted are these: for anti-ulcer stress Activity: P.O.; for anti-ulcer stressic activity (in words): general pharmacological screening.
The next data set deals with T1, calcium channel (Cavia porcellus, UniProt O35505).
T1 construct: Longitudinal smooth muscle segments of 2 cm length were mounted under a resting tension; from tissue; host or cells: ileal longitudinal smooth muscle segments of male albino guinea pigs
T1 sequence (O35505 whole entry): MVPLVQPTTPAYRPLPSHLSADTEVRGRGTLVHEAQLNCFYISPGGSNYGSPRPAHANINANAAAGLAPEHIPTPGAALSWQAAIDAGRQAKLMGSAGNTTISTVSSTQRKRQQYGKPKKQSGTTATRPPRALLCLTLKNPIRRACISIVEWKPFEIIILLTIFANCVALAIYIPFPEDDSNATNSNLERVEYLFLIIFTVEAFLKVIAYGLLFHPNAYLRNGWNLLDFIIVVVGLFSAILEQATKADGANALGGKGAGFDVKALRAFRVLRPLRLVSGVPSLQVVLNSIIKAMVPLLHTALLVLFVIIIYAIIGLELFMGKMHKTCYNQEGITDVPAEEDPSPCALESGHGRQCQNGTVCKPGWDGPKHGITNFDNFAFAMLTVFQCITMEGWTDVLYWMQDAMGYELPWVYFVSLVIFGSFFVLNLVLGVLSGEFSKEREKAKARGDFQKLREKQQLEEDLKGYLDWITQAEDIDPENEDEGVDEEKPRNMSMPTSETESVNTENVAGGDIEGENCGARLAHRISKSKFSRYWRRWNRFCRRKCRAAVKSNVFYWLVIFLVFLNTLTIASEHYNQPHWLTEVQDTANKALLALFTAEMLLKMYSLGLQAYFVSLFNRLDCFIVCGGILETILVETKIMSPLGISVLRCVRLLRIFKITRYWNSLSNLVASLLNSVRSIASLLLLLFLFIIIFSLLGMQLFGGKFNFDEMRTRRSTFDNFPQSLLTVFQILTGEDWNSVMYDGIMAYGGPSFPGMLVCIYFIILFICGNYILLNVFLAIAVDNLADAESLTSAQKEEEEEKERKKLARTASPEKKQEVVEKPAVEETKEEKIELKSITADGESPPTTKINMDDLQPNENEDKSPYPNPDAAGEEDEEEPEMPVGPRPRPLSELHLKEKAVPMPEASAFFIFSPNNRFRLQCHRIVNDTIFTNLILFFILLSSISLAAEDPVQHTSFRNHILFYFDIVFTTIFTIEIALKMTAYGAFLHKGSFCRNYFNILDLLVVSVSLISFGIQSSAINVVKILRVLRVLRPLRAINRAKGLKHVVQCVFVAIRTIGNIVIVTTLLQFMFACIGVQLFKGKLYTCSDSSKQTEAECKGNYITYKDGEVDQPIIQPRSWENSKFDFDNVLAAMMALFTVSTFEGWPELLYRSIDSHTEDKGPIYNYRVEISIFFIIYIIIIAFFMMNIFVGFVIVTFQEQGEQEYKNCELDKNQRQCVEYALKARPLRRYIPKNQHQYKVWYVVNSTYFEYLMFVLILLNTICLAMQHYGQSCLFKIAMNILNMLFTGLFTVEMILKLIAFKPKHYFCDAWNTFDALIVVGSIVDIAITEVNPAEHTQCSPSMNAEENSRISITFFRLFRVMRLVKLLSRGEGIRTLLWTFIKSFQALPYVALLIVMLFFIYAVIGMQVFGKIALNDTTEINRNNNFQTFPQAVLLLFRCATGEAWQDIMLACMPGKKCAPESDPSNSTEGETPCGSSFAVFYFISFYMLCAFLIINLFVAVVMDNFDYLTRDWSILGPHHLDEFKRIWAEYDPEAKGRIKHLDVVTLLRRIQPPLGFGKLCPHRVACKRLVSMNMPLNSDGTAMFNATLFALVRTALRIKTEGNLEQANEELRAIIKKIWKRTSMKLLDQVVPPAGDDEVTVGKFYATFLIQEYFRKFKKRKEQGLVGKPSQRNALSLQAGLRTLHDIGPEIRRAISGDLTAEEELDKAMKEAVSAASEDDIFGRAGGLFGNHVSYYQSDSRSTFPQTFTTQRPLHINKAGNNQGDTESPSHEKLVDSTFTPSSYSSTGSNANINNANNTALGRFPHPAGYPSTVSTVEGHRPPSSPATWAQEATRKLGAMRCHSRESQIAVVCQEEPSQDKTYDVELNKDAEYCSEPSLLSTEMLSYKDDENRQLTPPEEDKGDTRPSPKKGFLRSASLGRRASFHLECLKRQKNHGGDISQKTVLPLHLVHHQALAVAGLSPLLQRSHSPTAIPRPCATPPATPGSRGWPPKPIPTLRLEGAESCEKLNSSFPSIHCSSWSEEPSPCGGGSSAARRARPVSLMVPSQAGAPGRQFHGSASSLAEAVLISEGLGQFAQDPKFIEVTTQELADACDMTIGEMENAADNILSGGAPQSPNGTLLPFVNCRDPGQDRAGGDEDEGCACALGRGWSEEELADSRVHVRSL
The experiment in a line: Calcium channel antagonist activity: inhibition of muscarinic receptor-mediated Ca2+-dependent contraction (carbachol) of guinea pig ileal longitudinal smooth muscle. It is filed as cell-based. Particulars: for relative potency as compared with Nifedipine: Nifedipine = reference. As for the experimental part:
Male albino guinea pigs (body weight 300-450 g) were sacrificed by decapitation. The intestine was removed above the ileo-caecal junction. Longitudinal smooth muscle segments of 2 cm length were mounted under a resting tension of 300-400 mg. […] The muscles were equilibrated for 1 h with a solution change every 15 min. Two successive control contractions were elicited at 15 min. intervals with 5×10^-7 M carbachol. The isometric contractions were recorded with a force displacement transducer (FT 03C) on a GRASS* physiograph. The means of the […] contractile responses was taken as the 100% value for the tonic (slow) component of the response. The muscle was washed with Hepes saline solution and was allowed to re-equilibrate. The calcium antagonist (test compound) was added ten min before the dose-response for carbachol was determined. The drug-induced inhibition of contraction was expressed as percent of control. The ID50 values were graphically determined from the concentration-response curves, in triplicate.

In data set [3] the test system is heart. Briefly: Effect on heart rate.
The test system of the next data set is heart muscle. Briefly: Ionotropic effect on heart muscle. Particulars: for heart contractile force: at concentrations which exhibit Ca-blocking effect in smooth muscles; for positive ionotropic effect on the heart: in the same concentration as on smooth muscle; for activation at 0.00325 µM: same concentration as smooth muscle relaxant (Compound 11: 3.25×10^-9 M), Compound 19 in the same condition, read-out: positive ionotropic effect on heart muscle.

The next data set has as its system SHR Rat. The experiment in a line: Blood pressure and heart rate in SHR Rat. It is filed as in vivo. Particulars: 0.2 mg/Kg.
Another data set deals with LTD4. Briefly: LTD4 antagonistic activity (general pharmacological screening).
A further data set relates to angiotensin. The experiment in a line: In-vitro angiotensin inhibitory activity. It is filed as biochemical. The conditions noted are these: for angiotensin inhibitory activity (in words): general pharmacological screening; for Percent Inhibition (angiotensin inhibitory activity): in vitro.
Data set [4] relates to heart. Particulars: J. Cardiovascular Pharmacology, 1987, 10 (Suppl. 1) S60-S65; cited from earlier work.
Where [5] appears, read: guinea pig ileal longitudinal smooth muscle, carbachol, 37° C., triplicate, read-out: calcium channel antagonist act., inhib. act. on contractile response to CD ID50.

Consider `COC(=O)C1=C(C)NC(C)=C(C(=O)OCCCCCCCc2nc(C)cs2)C1c1cccc(C(F)(F)F)c1` (centres unmarked) [Example 13, 3-[7-(4-Methylthiazol-2-yl)heptyloxycarbonyl]-5-methoxycarbonyl-2,6-dimethyl-4-(3-trifluoromethylphenyl)-1,4-dihydropyridine], for which the “anti-inflammatory Activity” value in [1] (25 mg/kg) is listed as 43%.
On to `CCCCC1C(=O)N(c2ccccc2)N(c2ccccc2)C1=O` [Phenylbutazone, reference compound], for which, in data set [1] (50 mg/kg), the “anti-inflammatory Activity” value is 33%.
On to `CN1CCN(CC(=O)N2c3ccccc3C(=O)Nc3cccnc32)CC1` [Pirenzepine, reference compound], for which the “anti-ulcer stress Activity” value in [2] (50 mg/kg) was 75%.
As to `COC(=O)C1=C(C)NC(C)=C(C(=O)OCCCCCCSc2nc(C)cs2)C1c1cccc([N+](=O)[O-])c1` (centres unmarked) [Example 18, 3-[6-(4-Methylthiazol-2-yl)thiohexyloxycarbonyl]-5-methoxycarbonyl-2,6-dimethyl-4-(3-nitrophenyl)-1,4-dihydropyridine], at calcium channel (setting [5]), the IC50 is 5.48 nM.
The same measure, in the same setting: with `COC(=O)C1=C(C)NC(C)=C(C(=O)OCCCCCCCc2cc(C)no2)C1c1cccc(C(F)(F)F)c1` (centres unmarked) [Example 3, 3-[7-(3-Methylisoxazol-5-yl)heptyloxycarbonyl]-5-methoxycarbonyl-2,6-dimethyl-4-(3-trifluoromethylphenyl)-1,4-dihydropyridine] the figure was 5.13 nM; with `COC(=O)C1=C(C)NC(C)=C(C(=O)OCCCCCCCc2nc(C)cs2)C1c1cccc(Cl)c1Cl` (centres unmarked) [Example 17, 3-[7-(4-Methylthiazol-2-yl)heptyloxycarbonyl]-5-methoxycarbonyl-2,6-dimethyl-4-(2,3-dichlorophenyl)-1,4-dihydropyridine], 48.1 nM.
On to `COC(=O)C1=C(C)NC(C)=C(C(=O)OCCCCCCCc2nc(C)cs2)C1c1cccc([N+](=O)[O-])c1` (centres unmarked) [Example 11, 3-[7-(4-Methylthiazol-2-yl)heptyloxycarbonyl]-5-methoxycarbonyl-2,6-dimethyl-4-(3-nitrophenyl)-1,4-dihydropyridine], for which, in the data set with heart [3], the heart rate change result is “without changing the heart rate; also recorded: no effect on the heart”. Further, in the data set on heart muscle, the heart contractile force result is on record as “increase the heart contractile force; also recorded: increases cardia contractile force”, the “positive ionotropic effect on the heart” value was “about 12%” and the activation at 0.00325 µM is around 12%. For the same molecule, the “heart rate change in SHR Rat” value with SHR Rat is “without changing the heart rate”. Besides, on calcium channel (smooth muscle), the “relative potency as compared with Nifedipine” value is reported as 4.3. The IC50 on calcium channel (smooth muscle, read-out: IC50 as calcium antagonist in smooth muscle) is 3.25 ± 0.33 nM.
As to `COC(=O)C1=C(C)NC(C)=C(C(=O)OCCCCCCS(=O)(=O)c2nc(C)cs2)C1c1cccc([N+](=O)[O-])c1` (centres unmarked) [Example 19, 3-[6-(4-Methylthiazol-2-yl)sulfonylhexyloxycarbonyl]-5-methoxycarbonyl-2,6-dimethyl-4-(3-nitrophenyl)-1,4-dihydropyridine], the heart rate change entry in the data set on heart [3] is reported as “without changing the heart rate”. In the data set with heart muscle, the heart contractile force entry is “increase the heart contractile force”, the “positive ionotropic effect on the heart” value is given as “about 22%” and the activation at 0.00325 µM worked out at 25%. In addition, the IC50 on calcium channel (setting [5]) was 5.81 nM. In addition, the “relative potency as compared with Nifedipine” value on calcium channel (smooth muscle) is 2.5.
Turning to `COC(=O)C1=C(C)NC(C)=C(C(=O)OCCCCCCCc2cc(C)no2)C1c1cccc([N+](=O)[O-])c1` (centres unmarked) [Example 1, 3-[7-(3-Methylisoxazol-5-yl)heptyloxycarbonyl]-5-methoxycarbonyl-2,6-dimethyl-4-(3-nitrophenyl)-1,4-dihydropyridine], the “anti-ulcer stress Activity” value in data set [2] (50 mg/kg) stood at 63%. Besides, in data set [2], the “anti-ulcer stressic activity (in words)” value was “very strong”. Besides, the “LTD4 antagonistic activity (in words)” value with LTD4 is given as “very strong”. In addition, the “angiotensin inhibitory activity (in words)” value with angiotensin is recorded as “very strong”. For the same molecule, the “Percent Inhibition (angiotensin inhibitory activity)” value (“Percent Inhibition” for short) is 60% with angiotensin (0.0025 μg) and 93% in the data set with angiotensin (0.01 μg/ml). For the same molecule, the IC50 on calcium channel (setting [5]) came out at 3.84 nM.
`C[C@]12CCC(=O)C=C1CC[C@@H]1[C@@H]2[C@@H](O)C[C@@]2(C)[C@H]1CC[C@]2(O)C(=O)CO` [Hydrocortisone, reference compound]: the “anti-inflammatory Activity” value in data set [1] (25 mg/kg) amounted to 32%.
`COC(=O)C1=C(C)NC(C)=C(C(=O)OCCCCCC[S+]([O-])c2nc(C)cs2)C1c1cccc([N+](=O)[O-])c1` (centres unmarked) [Example 20, 3-[6-(4-Methylthiazol-2-yl)sulfinylhexyloxycarbonyl]-5-methoxycarbonyl-2,6-dimethyl-4-(3-nitrophenyl)-1,4-dihydropyridine]: on calcium channel (setting [5]), the IC50 amounted to 15.4 nM.
On to `CCOC(=O)C1=C(C)NC(C)=C(C(=O)OC)C1c1cccc(Cl)c1Cl` (centres unmarked) [Felodipine, 3-ethoxycarbonyl-5-methoxycarbonyl-4-(2,3-dichlorophenyl)-2,6-dimethyl-1,4-dihydropyridine], for which the “effect on heart rate (tachycardia)” value in the data set on heart [4] is “creates tachycardia”.
For the molecule `COC(=O)C1=C(C)NC(C)=C(C(=O)OCCCCCCn2nc(C)cc2C)C1c1cccc([N+](=O)[O-])c1` (centres unmarked) [Example 5, 3-[6-(3,5-Dimethylpyrazol-1-yl)hexyloxycarbonyl]-5-methoxycarbonyl-2,6-dimethyl-4-(3-nitrophenyl) -1,4-dihydropyridine], the “anti-inflammatory Activity” value in [1] (40 mg/kg) came out at 35%. Further, the “anti-inflammatory activity (in words)” value in data set [1] (general pharmacological screening) was “very strong”. The results for the “Percent Inhibition” value in the data set with angiotensin (0.001 μg) and in the data set with angiotensin (0.01 μg/ml) were 58% and 95%, respectively. Moreover, at calcium channel (setting [5]), the IC50 was found to be 6.24 nM.
As for `COC(=O)C1=C(C)NC(C)=C(C(=O)OCCCCCCCc2nc(C)cs2)C1c1cccc(Cl)c1` (centres unmarked) [Example 15, 3-[7-(4-Methylthiazol-2-yl)heptyloxycarbonyl]-5-methoxycarbonyl-2,6-dimethyl-4-(3-chlorophenyl)-1,4-dihydropyridine], in [2] (40 mg/kg), the “anti-ulcer stress Activity” value worked out at 63%. Besides, the “anti-ulcer stressic activity (in words)” value in [2] is listed as “very strong”. The “LTD4 antagonistic activity (in words)” value in the data set on LTD4 is listed as “very strong”. In the data set on angiotensin, the “angiotensin inhibitory activity (in words)” value is given as “very strong”. Besides, the “Percent Inhibition” value with angiotensin (0.1 μg/ml) turned out to be 64%. Besides, the IC50 at calcium channel (setting [5]) was found to be 6.25 nM.
As to `C[C@H](CS)C(=O)N1CCC[C@H]1C(=O)O` [Captopril, reference compound], the “Percent Inhibition” value in the data set on angiotensin (0.05 μg/ml) came to 69%.
